Data on 18 compounds can be found in patent US20240376099A1, “COMPOUNDS AND COMPOSITIONS AS INHIBITORS OF ENDOSOMAL TOLL-LIKE RECEPTORS” (Novartis AG, priority 2016, published 2024).

For this assay, the target named is T1, TLR7 (Homo sapiens, UniProt Q9NYK1).
T1 construct: Fresh blood was collected from normal human donors; endogenous in cells; host or cells: human PBMCs from fresh donor blood
T1 sequence (Q9NYK1 27-1049): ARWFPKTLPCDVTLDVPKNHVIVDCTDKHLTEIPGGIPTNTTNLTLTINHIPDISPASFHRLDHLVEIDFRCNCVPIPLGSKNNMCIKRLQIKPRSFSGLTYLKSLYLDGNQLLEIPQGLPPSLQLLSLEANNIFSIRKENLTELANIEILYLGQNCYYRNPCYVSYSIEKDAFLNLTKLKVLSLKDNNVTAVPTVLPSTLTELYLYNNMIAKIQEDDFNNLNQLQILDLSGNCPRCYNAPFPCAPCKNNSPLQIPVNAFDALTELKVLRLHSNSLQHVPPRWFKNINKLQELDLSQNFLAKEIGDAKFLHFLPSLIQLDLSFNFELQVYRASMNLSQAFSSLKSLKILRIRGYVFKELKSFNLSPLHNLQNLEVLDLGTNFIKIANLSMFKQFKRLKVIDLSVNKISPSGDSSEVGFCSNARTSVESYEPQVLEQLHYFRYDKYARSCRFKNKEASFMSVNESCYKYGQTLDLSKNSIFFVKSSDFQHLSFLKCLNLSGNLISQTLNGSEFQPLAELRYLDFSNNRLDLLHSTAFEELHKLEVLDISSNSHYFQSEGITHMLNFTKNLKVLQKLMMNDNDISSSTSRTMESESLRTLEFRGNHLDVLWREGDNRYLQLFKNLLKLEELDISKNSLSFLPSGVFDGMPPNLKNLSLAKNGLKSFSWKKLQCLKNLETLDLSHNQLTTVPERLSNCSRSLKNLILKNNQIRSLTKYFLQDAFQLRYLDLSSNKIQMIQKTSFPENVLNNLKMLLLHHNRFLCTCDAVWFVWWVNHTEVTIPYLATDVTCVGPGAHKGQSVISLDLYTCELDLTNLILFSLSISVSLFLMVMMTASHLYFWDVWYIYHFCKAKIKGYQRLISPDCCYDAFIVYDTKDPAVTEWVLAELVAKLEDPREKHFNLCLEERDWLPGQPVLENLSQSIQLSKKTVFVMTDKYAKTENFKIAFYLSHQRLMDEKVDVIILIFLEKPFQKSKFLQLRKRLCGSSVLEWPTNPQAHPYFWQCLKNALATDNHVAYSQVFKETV
Kind of assay: huPBMC TLR7 Antagonist IFNα Assay. Particulars: human PBMCs stimulated with ssRNA40 10 μg/mL (DOTAP), 14-16 hrs; IFNα2b AlphaLISA read-out. The format is cell-based. An outline of the steps:
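Human PBMCs from fresh donor blood (150,000 cells/well) stimulated 14–16 h at 37 °C with DOTAP-complexed ssRNA40 (final 1 μg/ml for TLR8, 10 μg/mL for TLR7) or ODN2216 (final 0.3 μM, TLR9), 0.25% DMSO, ten-point 1/3 compound dilutions. Supernatant IL-6 read by HTRF (TLR8); IFNα by IFNα2b AlphaLISA (TLR7/TLR9).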
For orientation: In Alpha technology, singlet oxygen from a donor bead excites a nearby acceptor bead.
What is called IC50 is the concentration needed to halve the response being measured. Turning to `Cc1nc(N2CCc3c(c(C)nn3CC34CCC(N5CCCCC5)(CC3)CC4)C2)c2cn[nH]c2n1` [compound 29, 6-methyl-4-(3-methyl-1-((4-(piperidin-1-yl)bicyclo[2.2.2]octan-1-yl)methyl)-6,7-dihydro-1H-pyrazolo[4,3-c]pyridin-5(4H)-yl)-1H-pyrazolo[3,4-d]pyrimidine], the IC50 is 73 nM. The result for `Cc1nc(N2CCc3c(c(C)nn3CC34CCC(N5CCCC5)(CC3)CC4)C2)c2cn[nH]c2n1` [compound 30, 6-methyl-4-(3-methyl-1-((4-(pyrrolidin-1-yl)bicyclo[2.2.2]octan-1-yl)methyl)-6,7-dihydro-1H-pyrazolo[4,3-c]pyridin-5(4H)-yl)-1H-pyrazolo[3,4-d]pyrimidine] reads 10 nM. The value for `Cc1nc(N2CCc3c(c(C)nn3CC34CCC(NCC5(CO)COC5)(CC3)CC4)C2)c2c(n1)c(C)nn2C` [compound 31, (3-(((4-((3-methyl-5-(1,3,5-trimethyl-1H-pyrazolo[4,3-d]pyrimidin-7-yl)-4,5,6,7-tetrahydro-1H-pyrazolo[4,3-c]pyridin-1-yl)methyl)bicyclo[2.2.2]octan-1-yl)amino)methyl)oxetan-3-yl)methanol] was 13 nM; that for `Cc1nc(N2CCc3c(c(C)nn3CC34CCC(NC(=O)[C@@H]5COCCN5)(CC3)CC4)C2)c2c(n1)c(C)nn2C` [compound 33, (S)-N-(4-((3-methyl-5-(1,3,5-trimethyl-1H-pyrazolo[4,3-d]pyrimidin-7-yl)-4,5,6,7-tetrahydro-1H-pyrazolo[4,3-c]pyridin-1-yl)methyl)bicyclo[2.2.2]octan-1-yl)morpholine-3-carboxamide] was 55 nM; that for `Cc1nc(N2CCc3c(c(C)nn3CC34CCC(NC(=O)[C@@H]5CNCCO5)(CC3)CC4)C2)c2c(n1)c(C)nn2C` [compound 34, (S)-N-(4-((3-methyl-5-(1,3,5-trimethyl-1H-pyrazolo[4,3-d]pyrimidin-7-yl)-4,5,6,7-tetrahydro-1H-pyrazolo[4,3-c]pyridin-1-yl)methyl)bicyclo[2.2.2]octan-1-yl)morpholine-2-carboxamide] was 13 nM.

With `Cc1nc(N2CCc3c(c(C)nn3CC34CCC(NC(=O)[C@H]5CNCCO5)(CC3)CC4)C2)c2c(n1)c(C)nn2C` [compound 36, (R)-N-(4-((3-methyl-5-(1,3,5-trimethyl-1H-pyrazolo[4,3-d]pyrimidin-7-yl)-4,5,6,7-tetrahydro-1H-pyrazolo[4,3-c]pyridin-1-yl)methyl)bicyclo[2.2.2]octan-1-yl)morpholine-2-carboxamide], the IC50 was found to be 7 nM. Take `Cc1nc(N2CCc3c(c(C)nn3CC34CCC(N5CCOCC5)(CC3)CC4)C2)c2c(C)noc2n1` [compound 37, 3,6-dimethyl-4-(3-methyl-1-((4-morpholinobicyclo[2.2.2]octan-1-yl)methyl)-6,7-dihydro-1H-pyrazolo[4,3-c]pyridin-5(4H)-yl)isoxazolo[5,4-d]pyrimidine]: the IC50 was found to be 159 nM. The result for `Cc1nc(N2CCc3c(c(C)nn3CC34CCC(N5CCCCC5)(CC3)CC4)C2)c2c(n1)c(C)nn2C` [compound 38, 1,3,5-trimethyl-7-(3-methyl-1-((4-(piperidin-1-yl)bicyclo[2.2.2]octan-1-yl)methyl)-6,7-dihydro-1H-pyrazolo[4,3-c]pyridin-5(4H)-yl)-1H-pyrazolo[4,3-d]pyrimidine] reads 42 nM; that for `Cc1nc(N2CCc3c(c(C)nn3CC34CCC(N5CCCCC5)(CC3)CC4)C2)c2cnn(C)c2n1` [compound 39, 1,6-dimethyl-4-(3-methyl-1-((4-(piperidin-1-yl)bicyclo[2.2.2]octan-1-yl)methyl)-6,7-dihydro-1H-pyrazolo[4,3-c]pyridin-5(4H)-yl)-1H-pyrazolo[3,4-c]pyrimidine], 60 nM. For the compound `[2H]C([2H])([2H])N(C([2H])([2H])[2H])C12CCC(Cn3nc(C)c4c3CCN(c3nc(C)nc5c(C)nn(C)c35)C4)(CC1)CC2` [compound 40, 4-((3-methyl-5-(1,3,5-trimethyl-1H-pyrazolo[4,3-d]pyrimidin-7-yl)-4,5,6,7-tetrahydro-1H-pyrazolo[4,3-c]pyridin-1-yl)methyl)-N,N-bis(trideuteromethyl)bicyclo[2.2.2]octan-1-amine], the IC50 was 70 nM. On to `Cc1nn(CC23CCC(N)(CC2)CC3)c2c1CN(c1ccnc3[nH]ncc13)CC2` [compound 41, 4-((3-methyl-5-(1H-pyrazolo[3,4-b]pyridin-4-yl)-4,5,6,7-tetrahydro-1H-pyrazolo[4,3-c]pyridin-1-yl)methyl)bicyclo[2.2.2]octan-1-amine], for which the IC50 came out at 6 nM. As to `Cc1c2c(nn1CC13CCC(N)(CC1)CC3)CCN(c1ccnc3[nH]ncc13)C2` [compound 42, 4-((3-methyl-5-(1H-pyrazolo[3,4-b]pyridin-4-yl)-4,5,6,7-tetrahydro-2H-pyrazolo[4,3-c]pyridin-2-yl)methyl)bicyclo[2.2.2]octan-1-amine], the IC50 is 17 nM. Consider `Cc1cc(N2CCc3c(c(C)nn3CC34CCC(N)(CC3)C4)C2)c2cnn(C)c2n1` [compound 44, 4-((5-(1,6-dimethyl-1H-pyrazolo[3,4-b]pyridin-4-yl)-3-methyl-4,5,6,7-tetrahydro-1H-pyrazolo[4,3-c]pyridin-1-yl)methyl)bicyclo[2.2.1]heptan-1-amine], for which the IC50 came to 38 nM. In the case of `Cc1cc(N2CCc3c(c(C(F)(F)F)nn3CC34CCC(N)(CC3)CC4)C2)c2cnn(C)c2n1` [compound 45, 4-((5-(1,6-dimethyl-1H-pyrazolo[3,4-b]pyridin-4-yl)-3-(trifluoromethyl)-4,5,6,7-tetrahydro-1H-pyrazolo[4,3-c]pyridin-1-yl)methyl)bicyclo[2.2.2]octan-1-amine], the IC50 came to 38 nM.

As for `Cc1cc(N2CCc3c(c(C)nn3CC34CCC(NCC(=O)N5CCCCC5)(CC3)CC4)C2)c2cnn(C)c2n1` [compound 99, 2-((4-((5-(1,6-dimethyl-1H-pyrazolo[3,4-b]pyridin-4-yl)-3-methyl-4,5,6,7-tetrahydro-1H-pyrazolo[4,3-c]pyridin-1-yl)methyl)bicyclo[2.2.2]octan-1-yl)amino)-1-(piperidin-1-yl)ethanone], the IC50 was found to be 40 nM. The value for `Cc1cc(N2CCc3c(c(C)nn3CC34CCC(NC(=O)CN5CCCC5)(CC3)CC4)C2)c2cnn(C)c2n1` [compound 100, N-(4-((5-(1,6-dimethyl-1H-pyrazolo[3,4-b]pyridin-4-yl)-3-methyl-4,5,6,7-tetrahydro-1H-pyrazolo[4,3-c]pyridin-1-yl)methyl)bicyclo[2.2.2]octan-1-yl)-2-(pyrrolidin-1-yl)acetamide] was 5 nM; that for `COCCNC12CCC(Cn3nc(C)c4c3CCN(c3cc(C)nc5c3cnn5C)C4)(CC1)OC2` [compound 102, 1-((5-(1,6-dimethyl-1H-pyrazolo[3,4-b]pyridin-4-yl)-3-methyl-4,5,6,7-tetrahydro-1H-pyrazolo[4,3-c]pyridin-1-yl)methyl)-N-(2-methoxyethyl)-2-oxabicyclo[2.2.2]octan-4-amine] was 22 nM.

On to `Cc1cc(N2CCc3c(c(C)nn3CC34CCC(NC(=O)CCN(C)C)(CC3)CC4)C2)c2cnn(C)c2n1` [compound 105, N-(4-((5-(1,6-dimethyl-1H-pyrazolo[3,4-b]pyridin-4-yl)-3-methyl-4,5,6,7-tetrahydro-1H-pyrazolo[4,3-c]pyridin-1-yl)methyl)bicyclo[2.2.2]octan-1-yl)-3-(dimethylamino)propanamide], for which the IC50 was found to be 14 nM.
